In brackets after ≈: the same amount, converted by molar mass. Values belong to the compound of their own block, whether it stands above or below them.
What was measured:
Assay in all cases: ≥ marks a high value that may be exact or a test limit, other limits are often not marked, values filed in µg/mL are converted to µM
[1] = test system: Staphylococcus aureus ATCC 25923
[2] = test system: Candida albicans ATCC 18804
[3] = test system: Escherichia coli ATCC 25922
[4] = test system: Stenotrophomonas maltophilia B32/1
[5] = test system: Staphylococcus aureus 127/08
[6] = test system: Staphylococcus epidermidis RP62A
[7] = test system: Xanthomonas arboricola pv. pruni CFBP 5563
[8] = test system: Pseudomonas syringae pv. actinidiae Psa3700.1.1
[9] = test system: Erwinia amylovora PMV 6076
[10] = test system: Klebsiella pneumoniae ATCC 700603
[11] = test system: Stenotrophomonas maltophilia B5/5
[12] = test system: Staphylococcus aureus 274/08
[13] = test system: Stenotrophomonas maltophilia U8908
[14] = test system: Acinetobacter baumannii NM124
[15] = test system: Staphylococcus epidermidis T37/8
[16] = test system: Escherichia coli ATCC 25726
[17] = test system: Staphylococcus epidermidis T6/19
[18] = test system: Xanthomonas campestris pv. Vesicatoria 2133-2
[19] = test system: Acinetobacter baumannii NM8
[20] = test system: Candida albicans ATCC 90028
[21] = test system: Acinetobacter baumannii NM109
[22] = test system: Staphylococcus aureus V4180
[23] = test system: Staphylococcus aureus S908
[24] = test system: Acinetobacter baumannii NM75
[25] = test system: Acinetobacter baumannii NM35
[26] = test system: Pseudomonas aeruginosa ATCC 27853
[27] = test system: Xanthomonas fragariae Xf349-9A
[28] = test system: Staphylococcus aureus 145/08
[29] = test system: Enterococcus faecalis ATCC 29212
[30] = test system: Stenotrophomonas maltophilia B32/4
[31] = test system: Staphylococcus aureus T4/6
[32] = test system: Stenotrophomonas maltophilia B6/2
[33] = test system: Pseudomonas syringae pv. syringae EPS 94
[34] = test system: Staphylococcus epidermidis RP62A/1
Pasteurella multocida = test system: Pasteurella multocida
[35] = test system: Escherichia coli CCARM 1238
[36] = test system: Pseudomonas aeruginosa ATCC 15692
[37] = test system: Escherichia coli KCTC 1682
[38] = test system: Listeria monocytogenes CICC 21533
[39] = test system: Salmonella typhimurium CCARM 8013
[40] = test system: Salmonella typhimurium KCTC 1926
[41] = test system: Bacillus subtilis CICC 24434
[42] = test system: Escherichia coli ATCC 12795
[43] = test system: Escherichia coli CCARM 1229
[44] = test system: Pseudomonas aeruginosa KCTC 1637
[45] = test system: Pasteurella multocida C48-3
[46] = test system: Salmonella typhimurium CCARM 8009
[47] = test system: Salmonella enterica subsp. enterica serovar Choleraesuis C78-1
[48] = test system: Staphylococcus epidermidis LY8
[49] = test system: Streptococcus pyogenes KCTC 3096
Escherichia coli E44813 = test system: Escherichia coli E44813
[50] = test system: Salmonella typhimurium SL1344
[51] = test system: Proteus vulgaris KCTC 2433
[52] = test system: Bacillus subtilis KCTC 1918
[53] = test system: Staphylococcus aureus KCTC 1621

- MIC [1]: > 128 µM
- MIC [2]: ≥ 128 µM
- MIC [3]: 128 µM (≈ 393 µg/mL)
Compound: CC[C@H](C)[C@H](NC(=O)[C@H](C)NC(=O)[C@H](CCC(=O)O)NC(=O)[C@H](CO)NC(=O)[C@@H](N)Cc1ccccc1)C(=O)N[C@@H](CCCCN)C(=O)N[C@@H](CCCCN)C(=O)N[C@H](C(=O)N[C@H](C(=O)N[C@@H](CC(=O)O)C(=O)N[C@@H](Cc1ccccc1)C(=O)N[C@@H](CC(C)C)C(=O)NCC(=O)N[C@@H](CCC(=O)O)C(=O)NCC(=O)N[C@@H](CC(C)C)C(=O)N[C@@H](Cc1ccccc1)C(=O)N[C@@H](CC(=O)O)C(=O)N[C@H](C(=O)N[C@H](C(=O)N[C@@H](CCCCN)C(=O)N[C@@H](CCCCN)C(=O)N[C@H](C(=O)N[C@@H](C)C(=O)N[C@@H](CCC(=O)O)C(=O)N[C@@H](CO)C(=O)N[C@@H](Cc1ccccc1)C(=O)O)[C@@H](C)CC)[C@@H](C)CC)[C@@H](C)CC)[C@@H](C)CC)[C@@H](C)CC [FSEAIKKIIDFLGEGLFDIIKKIAESF]

- MIC [1]: 16 µM (≈ 24.8 µg/mL)
- MIC [4]: ≥ 62.5 µM
- MIC [5]: 8 µM (≈ 12.4 µg/mL)
- MIC [6]: 16 µM (≈ 24.8 µg/mL)
- MIC [7]: 8.8 µM (≈ 13.6 µg/mL)
- MIC [8]: ≥ 50 µM
- MIC [9]: ≥ 35.4 µM
- MIC [10]: 250 µM (≈ 387 µg/mL)
- MIC [11]: ≥ 62.5 µM
- MIC [12]: 16 µM (≈ 24.8 µg/mL)
- MIC [13]: ≥ 62.5 µM
- MIC [14]: ≥ 125 µM
- MIC [15]: 16 µM (≈ 24.8 µg/mL)
- MIC [16]: ≥ 125 µM
- MIC [17]: 8 µM (≈ 12.4 µg/mL)
- MIC [18]: 8.8 µM (≈ 13.6 µg/mL)
- MIC [19]: ≥ 125 µM
- MIC [20]: ≥ 62.5 µM
- MIC [21]: ≥ 125 µM
- MIC [22]: 16 µM (≈ 24.8 µg/mL)
- MIC [23]: 16 µM (≈ 24.8 µg/mL)
- MIC [24]: ≥ 62.5 µM
- MIC [25]: ≥ 125 µM
- MIC [26]: 250 µM (≈ 387 µg/mL)
- MIC [27]: ≥ 35.4 µM
- MIC [28]: 16 µM (≈ 24.8 µg/mL)
- MIC [29]: 62.5 µM (≈ 96.7 µg/mL)
- MIC [30]: ≥ 62.5 µM
- MIC [31]: 16 µM (≈ 24.8 µg/mL)
- MIC [32]: 31.3 µM (≈ 48.4 µg/mL)
- MIC [33]: ≥ 50 µM
- MIC [34]: 8 µM (≈ 12.4 µg/mL)
Compound: CC[C@H](C)[C@H](NC(=O)[C@H](C)NC(=O)[C@H](CCCCN)NC(=O)CNC(=O)[C@@H](NC(=O)[C@H](Cc1cnc[nH]1)NC(=O)CNC(=O)[C@H](CC(C)C)NC(=O)[C@H](CC(C)C)NC(=O)[C@@H](NC(=O)CNC(=O)[C@@H](NC(=O)[C@H](CC(C)C)NC(=O)CN)C(C)C)[C@@H](C)O)[C@@H](C)CC)C(=O)N[C@@H](CC(C)C)C(=O)N[C@@H](CO)C(N)=O [GLVGTLLGHIGKAILS]

- MIC [1]: 0.0165 µM (≈ 0.0489 µg/mL)
- MIC (Pasteurella multocida): 6.8 µM (≈ 20.1 µg/mL)
- MIC [35]: 2 µM (≈ 5.93 µg/mL)
- MIC [36]: 8 µM (≈ 23.7 µg/mL)
- MIC [37]: 1.56 µM (≈ 4.62 µg/mL)
- MIC [38]: ≥ 42.2 µM
- MIC [39]: 4 µM (≈ 11.9 µg/mL)
- MIC [40]: 1.77 µM (≈ 5.23 µg/mL)
- MIC [41]: 0.527 µM (≈ 1.56 µg/mL)
- MIC [42]: 0.4 µM (≈ 1.19 µg/mL)
- MIC [43]: 4 µM (≈ 11.9 µg/mL)
- MIC [44]: 1.56 µM (≈ 4.62 µg/mL)
- MIC [45]: 1.05 µM (≈ 3.12 µg/mL)
- MIC [46]: 4 µM (≈ 11.9 µg/mL)
- MIC [48]: 8.44 µM (≈ 25 µg/mL)
- MIC [49]: 1.56 µM (≈ 4.62 µg/mL)
- MIC (Escherichia coli E44813): 8.44 µM (≈ 25 µg/mL)
- MIC [50]: 1.05 µM (≈ 3.12 µg/mL)
- MIC [51]: 16 µM (≈ 47.4 µg/mL)
- MIC [52]: 1.56 µM (≈ 4.62 µg/mL)
- MIC [3]: 4 µM (≈ 11.9 µg/mL)
- MIC [53]: 3.12 µM (≈ 9.26 µg/mL)
Compound: CC[C@H](C)[C@H](NC(=O)[C@@H](NC(=O)[C@@H](N)CCCN=C(N)N)[C@@H](C)CC)C(=O)N[C@@H](CC(=O)O)C(=O)N[C@@H](CC(C)C)C(=O)N[C@@H](CC(C)C)C(=O)N[C@@H](Cc1c[nH]c2ccccc12)C(=O)N[C@@H](CCCN=C(N)N)C(=O)N[C@H](C(=O)N[C@@H](CCCN=C(N)N)C(=O)N[C@@H](CCCN=C(N)N)C(=O)N1CCC[C@H]1C(=O)N[C@@H](CCC(N)=O)C(=O)N[C@@H](CCCCN)C(=O)N1CCC[C@H]1C(=O)N[C@@H](CCCCN)C(=O)N[C@@H](Cc1ccccc1)C(=O)N[C@H](C(=O)N[C@H](C(=O)N[C@H](C(=O)N[C@@H](Cc1c[nH]c2ccccc12)C(=O)N[C@H](C(=O)N[C@@H](CCCN=C(N)N)C(=O)O)C(C)C)C(C)C)[C@@H](C)O)C(C)C)C(C)C [RIIDLLWRVRRPQKPKFVTVWVR]
- MIC [47]: 0.527 µM (≈ 1.56 µg/mL)
